# Active and inactive are the calls of the source. The calls are words filed in the database; no cut-off is given here.
# Tests used:
# [1] = system: Colletotrichum acutatum; experiment: Antifungal activity against Colletotrichum acutatum assessed as growth inhibition at 0.3 to 30 uM after 48 to 72 hr by 96-well microdilution broth assay; format: functional, organism-based
# [2] = system: Fusarium oxysporum; experiment: Antifungal activity against Fusarium oxysporum assessed as growth inhibition at 0.3 to 30 uM after 48 to 72 hr by 96-well microdilution broth assay; format: functional, organism-based
# [3] = system: Colletotrichum gloeosporioides; experiment: Antifungal activity against Colletotrichum gloeosporioides assessed as growth inhibition at 0.3 to 30 uM after 48 to 72 hr by 96-well microdilution broth assay; format: functional, organism-based
# [4] = system: Colletotrichum fragariae; experiment: Antifungal activity against Colletotrichum fragariae assessed as growth inhibition at 0.3 to 30 uM after 48 to 72 hr by 96-well microdilution broth assay; format: functional, organism-based
# [5] = system: Botrytis cinerea; experiment: Antifungal activity against Botryotinia fuckeliana assessed as growth inhibition at 0.3 to 30 uM after 48 to 72 hr by 96-well microdilution broth assay; format: functional, organism-based
# [6] = system: Aedes aegypti; experiment: Insecticidal activity against female adult Aedes aegypti fed on CPDA-1+ATP assessed as biting deterrence activity at 25 nmol/cm2 by six-celled K & D module bioassay; format: functional
# [7] = system: Phomopsis obscurans; experiment: Antifungal activity against Phomopsis obscurans assessed as growth inhibition at 30 uM after 144 hr by 96-well microdilution broth assay; format: functional; conditions: Paraphomopsis obscurans, read-out: GI
# [8] = system: Diaporthe ampelina; experiment: Antifungal activity against Diaporthe ampelina assessed as growth inhibition at 30 uM after 144 hr by 96-well microdilution broth assay; format: functional; conditions: read-out: GI
# [9] = system: Aedes aegypti; experiment: Insecticidal activity against first-instar larval stage of Aedes aegypti assessed as mortality at 0.8 ppm after 24 hr; format: functional, organism-based
# [10] = system: Aedes aegypti; experiment: Insecticidal activity against first-instar larval stage of Aedes aegypti assessed as mortality at 1.6 ppm after 48 hr; format: functional
# [11] = system: Aedes aegypti; experiment: Insecticidal activity against first-instar larval stage of Aedes aegypti assessed as mortality after 48 hr; format: functional
# [12] = system: Aedes aegypti; experiment: Insecticidal activity against first-instar larval stage of Aedes aegypti assessed as mortality after 24 hr; format: functional
# [13] = system: Aedes aegypti; experiment: Insecticidal activity against first-instar larval stage of Aedes aegypti assessed as mortality at 25 ppm after 24 hr; format: functional
# [14] = system: Aedes aegypti; experiment: Insecticidal activity against first-instar larval stage of Aedes aegypti assessed as mortality at 0.8 ppm after 48 hr; format: functional
# [15] = system: Aedes aegypti; experiment: Insecticidal activity against first-instar larval stage of Aedes aegypti assessed as mortality at 100 ppm after 24 hr; format: functional
# [16] = system: Aedes aegypti; experiment: Insecticidal activity against first-instar larval stage of Aedes aegypti assessed as mortality at 1.6 ppm after 24 hr; format: functional, organism-based
# [17] = system: Aedes aegypti; experiment: Insecticidal activity against first-instar larval stage of Aedes aegypti assessed as mortality at 50 ppm after 24 hr; format: functional
Structure (SMILES),growth inhibition (GI) [1],growth inhibition (GI) [2],growth inhibition (GI) [3],growth inhibition (GI) [4],growth inhibition (GI) [5],Activity [6],inhibition of growth at 30 µM [7],other results
O=C(CCC1CCCCC1)N/N=C\c1ccc([N+](=O)[O-])cc1,inactive,inactive,inactive,inactive,inactive,22%,–,–
CN(C)c1ccc(/C=N\NC(=O)CCC2CCCCC2)cc1,inactive,inactive,inactive,inactive,inactive,22%,–,–
O=C(CCC1CCCCC1)N/N=C\c1ccc(F)cc1,inactive,inactive,inactive,inactive,inactive,–,86.9%,inhibition of growth at 30 µM [8]: 83.6%
O=C1C2CC=CCC2C(=O)N1SC(Cl)(Cl)Cl (centres undefined) [CAPTAN],–,–,–,–,–,–,100%,inhibition of growth at 30 µM [8]: 99.2%
O=C(CCC1CCCCC1)N/N=C\c1ccc(O)cc1,inactive,inactive,inactive,inactive,inactive,22%,–,–
COc1ccc(/C=N\NC(=O)CCC2CCCCC2)cc1,inactive,inactive,inactive,inactive,inactive,22%,74.1%,–
O=C(CCC1CCCCC1)N/N=C\c1ccc(Br)cc1,inactive,inactive,inactive,inactive,inactive,>50%,–,–
Cc1ccc(/C=N\NC(=O)CCC2CCCCC2)cc1,inactive,inactive,inactive,inactive,inactive,22%,86.7%,–
CCN(CC)C(=O)c1cccc(C)c1 [DIETHYLTOLUAMIDE],–,–,–,–,–,80%,–,–
CC(C)c1ccc(/C=N\NC(=O)CCC2CCCCC2)cc1,inactive,inactive,inactive,inactive,inactive,22%,99.5%,"Activity [9]: inactive; mortality at 1.6 ppm [10]: 14.7%; LD90 [11]: 19.1 ppm; LC50 ([11]; Aedes aegypti, Instar larval stage, 48 h, read-out: LD50 (the source's name)): 4.35 mg/L; LD90 [12]: 297.8 ppm; LC50 ([12]; Aedes aegypti, Instar larval stage, 24 h, read-out: LD50 (the source's name)): 57.4 mg/L; mortality at 25 ppm [13]: 30%; mortality at 0.8 ppm [14]: 4%; mortality at 100 ppm [15]: 80%; inhibition of growth at 30 µM [8]: 94%; Activity [16]: inactive; mortality at 50 ppm [17]: 70%"
O=C(CCC1CCCCC1)N/N=C\c1ccccc1,inactive,inactive,inactive,inactive,inactive,>50%,–,–
O=C(CCC1CCCCC1)N/N=C\c1ccc(Cl)cc1,inactive,inactive,inactive,inactive,inactive,>50%,–,–
